≈ marks a conversion by molar mass, not a printed value.
Experiments:
[1] = tested on: HCT116 p53+/+ cells; experiment: Resazurin reduction assay (RRA), cytotoxicity; assay type: cell-based; conditions: Homo sapiens, HCT-116, 72 h
Description: (§3) In this work, 9 cancer cell lines with various drug resistance patterns as well as AML12 hepatocytes as normal control cell line were used. […] The AML12 hepatocytes were used for the comparison of the activities of the samples with HepG2 [40]. […] The RPMI-1640 medium was used for the culture of CCRF-CEM and CEM/ADR5000 cells whilst DMEM medium was used for carcinoma cells. The culture media were supplemented (complete medium) with 10% fetal bovine serum and 1% penicillin/streptomycin (Invitrogen, Eggenstein, Germany). […] To maintain the resistance phenotype of the resistant carcinoma cell lines such as MDA-MB-231/BCRP and HCT116 p53^−/−, and U87MG.ΔEGFR cells, the complete DMEM medium containing geneticin at 800 ng/ml and 400 µg/ml, respectively were used [41, 42].
(§4) Cells were cultured in a standard condition consisted of a humidified 5% CO2 atmosphere and an incubation temperature of 37 °C. The tested concentration ranges were 0.63—80 µg/mL for the botanicals and 0.78—100 µM for phytochemicals. The incubation time of the treated cells was 72 h, and the fluorescence was measured with Infinite M2000 Pro™ plate reader (Tecan, Crailsheim, Germany). The wavelengths used were 544 nm for the excitation and 590 nm for the emission. […] The degree of resistance (D.R.) was set as the ratio of the IC50 values of samples in the resistant cell line vs that of corresponding sensitive cell line. The selectivity index (S.I.) was the ratio of the IC50 value of AML12 hepatocytes vs. that of HepG2 cells [13, 48].

[2] = tested on: CEM/ADR5000 cells; experiment: Resazurin reduction assay (RRA), cytotoxicity; assay type: cell-based, human; conditions: for IC50: Homo sapiens, CEM/ADR5000, 72 h; for Degree of resistance (D.R.): ratio of IC50 CEM/ADR5000 vs CCRF-CEM
[3] = tested on: HCT116 p53−/− cells; experiment: Resazurin reduction assay (RRA), cytotoxicity; assay type: cell-based, human; conditions: for IC50: Homo sapiens, HCT-116, HCT116 p53−/−, 72 h; for Degree of resistance (D.R.): ratio of IC50 HCT116 p53−/− vs HCT116 p53+/+
[4] = tested on: AML12 hepatocytes; experiment: Resazurin reduction assay (RRA), cytotoxicity on normal hepatocytes; assay type: cell-based; conditions: for IC50: Mus musculus, AML12 normal hepatocytes, 72 h
[5] = tested on: MDA-MB-231-BCRP cells; experiment: Resazurin reduction assay (RRA), cytotoxicity; conditions: for IC50: Homo sapiens, MDA-MB-231/BCRP, 72 h; for Degree of resistance (D.R.): ratio of IC50 MDA-MB-231-BCRP vs MDA-MB-231-pcDNA
[6] = tested on: HepG2 cells; experiment: Resazurin reduction assay (RRA), cytotoxicity; assay type: cell-based; conditions: Homo sapiens, HepG2, 72 h
Description: as §3, §4

[7] = tested on: U87MG.ΔEGFR cells; experiment: Resazurin reduction assay (RRA), cytotoxicity; assay type: cell-based, human; conditions: for IC50: Homo sapiens, U87MG.ΔEGFR, 72 h; for Degree of resistance (D.R.): ratio of IC50 U87.MGΔEGFR vs U87.MG
[8] = tested on: MDA-MB-231-pcDNA cells; experiment: Resazurin reduction assay (RRA), cytotoxicity; assay type: cell-based; conditions: Homo sapiens, 72 h
[9] = tested on: CCRF-CEM leukemia cells; experiment: Resazurin reduction assay (RRA), cytotoxicity; assay type: cell-based; conditions: Homo sapiens, 72 h
Description: as §3, §4

[10] = tested on: U87MG cells; experiment: Resazurin reduction assay (RRA), cytotoxicity; assay type: cell-based; conditions: Homo sapiens, U-87 MG, 72 h
Description: as §3, §4

[11] = tested on: TE-418 osteosarcoma cells; parameters: method as in PMID 1800632; conditions: TE-418 ref 60; cited from earlier work
[12] = tested on: SW480 colon cancer cells; parameters: method as in PMID 24018191; conditions: SW480 ref 61; cited from earlier work
[13] = tested on: HeLa-S3 uterine cells; parameters: method as in PMID 1800632; conditions: HeLa-S3 ref 60; cited from earlier work
[14] = tested on: CCRF-CEM cells; experiment: Mitochondrial membrane potential (MMP), JC-1 staining, flow cytometry; assay type: cell-based, human; conditions: 2 × IC50, 24 h
Experimental: (§1) The modification of the MMP as well as the ROS levels after the application of BAL, and flavonolignan 2 at ¼ IC50, ½ IC50, IC50, and 2 × IC50 to CCRF-CEM cells (1 × 10^6) was performed by flow cytometry. DMSO was used as solvent control while valinomycin served as a positive control. The cells were incubated for 24 h and further stained for 30 min with JC-1 [45] and measured (1 × 10^4 cells) in an LSR-Fortessa FACS analyzer (Becton–Dickinson). For ROS determination, CCEF-CEM cells were similarly treated BAL, the flavonolignan 2, hydrogen peroxide (H2O2; positive control), DMSO (solvent control) as in the MMP analysis, then incubated for 24 h. They were further stained with H2DCFH-DA and measured (1 × 10^4 cells) in an LSR-Fortessa FACS analyzer.

[15] = tested on: CCRF-CEM cells; experiment: Cell cycle distribution by flow cytometry (PI staining); assay type: cell-based, human
Experimental: The modification of the cell cycle distribution of CCRF-CEM induced by the botanicals BAL, the flavonolignan 2, the control drug, doxorubicin, or the solvent control DMSO was determined by flow cytometry under the previously reported work conditions. BAL and compound 2 were applied to CCRF-CEM cells (1 ml; 1 × 10^6 cells) at their ¼ IC50, ½ IC50, IC50, and 2 × IC50 values. The whole was then incubated for 24 h as earlier indicated followed by the analysis of the cell cycle distribution with a BD Accury C6 Flow Cytometer (BD Biosciences, Heidelberg, Germany). Assays were performed three times in triplicates.

[16] = tested on: S-480 colon adenocarcinoma; parameters: method as in PMID 1800632; conditions: S-480 ref 60; cited from earlier work
[17] = tested on: CCRF-CEM cells; experiment: Reactive oxygen species (ROS), H2DCFH-DA staining, flow cytometry; assay type: cell-based, human
Experimental: as §1

[18] = tested on: 697 pre-B acute lymphoblastic leukemia cell line; parameters: method as in PMID 23280566; conditions: 697 pre-B ALL ref 59; cited from earlier work
[19] = tested on: L-1210 leukemia cells; parameters: method as in PMID 1800632; conditions: murine L-1210 ref 60; cited from earlier work
[20] = tested on: Tmolt3 leukemia cells; parameters: method as in PMID 1800632; conditions: Tmolt3 ref 60; cited from earlier work
[21] = tested on: caspase 8 in CCRF-CEM cells; experiment: Caspase-Glo assay; assay type: cell-based, human; conditions: 2 × IC50, 6 h
Experimental: (§2) The activity of caspases in CCRF-CEM cells treated with BAL and the flavonolignan 2 was determined by Caspase-Glo assay. […] The whole was then incubated for 6 h (standard culture conditions) and the activity of caspases was detected by spectrophotometry as previously described.

[22] = tested on: caspase 9 in CCRF-CEM cells; experiment: Caspase-Glo assay; assay type: cell-based, human; conditions: 2 × IC50, 6 h
Experimental: as §2

[23] = tested on: KB nasopharynx cancer cells; parameters: method as in PMID 1800632; conditions: KB ref 60; cited from earlier work
[24] = tested on: CCRF-CEM cells; experiment: Apoptosis by annexin V/PI staining and flow cytometry; assay type: cell-based, human; conditions: 2 x IC50, 24 h
Description: Afterward, apoptosis detection was undertaken with a fluorescein isothiocynate (FITC)-conjugated annexin V/PI assay kit (eBioscience™ Annexin V; Invitogen, San Diego, USA). The measurement was done using BD Accury C6 Flow Cytometer (BD Biosciences) under experimental conditions previously reported. The assays were done thrice independently with three repetitions each.

[25] = tested on: nine cancer cell lines; experiment: RRA cytotoxicity, summary over the panel; assay type: cell-based, human; conditions: number out of 9 cancer cell lines
Description: as §3
Cells were cultured in a standard condition consisted of a humidified 5% CO2 atmosphere and an incubation temperature of 37 °C. The tested concentration ranges were 0.63—80 µg/mL for the botanicals and 0.78—100 µM for phytochemicals. The incubation time of the treated cells was 72 h, and the fluorescence was measured with Infinite M2000 Pro™ plate reader (Tecan, Crailsheim, Germany). The wavelengths used were 544 nm for the excitation and 590 nm for the emission. […] The degree of resistance (D.R.) was set as the ratio of the IC50 values of samples in the resistant cell line vs that of corresponding sensitive cell line. […]

[26] = tested on: MB-9812 lung cancer cells; parameters: method as in PMID 1800632; conditions: MB-9812 ref 60; cited from earlier work

SMILES: CC(C)=CC(=O)c1c[nH]c2ccccc12 [Compound 1, 3, (3-(3-methyl-1-oxo-2-butenyl))1H indole]
- IC50 [1]: 23.9 ± 2.32 µM
- IC50 [2]: 32 ± 2.05 µM
- Degree of resistance (D.R.) [2]: 1.68
- IC50 [3]: 36.4 ± 3.04 µM
- Degree of resistance (D.R.) [3]: 1.53
- IC50 [4]: > 100 µM
- Selectivity index (S.I.) ([4]; ratio of IC50 in AML12 vs IC50 in HepG2 cells): > 2.50
- IC50 [5]: 47.5 ± 2.75 µM
- Degree of resistance (D.R.) [5]: 3.54
- IC50 [6]: 39.9 ± 2.84 µM
- IC50 [7]: 36.3 ± 3.01 µM
- Degree of resistance (D.R.) [7]: 1.50
- IC50 [8]: 13.4 ± 0.93 µM
- IC50 [9]: 19.1 ± 1.56 µM
- IC50 [10]: 24.2 ± 1.16 µM

SMILES: COc1cc([C@H]2Oc3cc(-c4cc(=O)c5c(O)cc(O)cc5o4)ccc3O[C@@H]2CO)ccc1O [Compound 2, hydnocarpin]
- IC50 [1]: 11.4 ± 0.98 µM
- IC50 [11]: 2.14 µg/mL (≈ 4.61 µM)
- IC50 [2]: 3.07 ± 0.18 µM
- Degree of resistance (D.R.) [2]: 0.72
- IC50 [12]: 20.3 µM
- IC50 [13]: 2.02 µg/mL (≈ 4.35 µM)
- IC50 [3]: 6.74 ± 0.33 µM
- Degree of resistance (D.R.) [3]: 0.59
- Q1: cells with undamaged (intact) MMP [14]: 10.4%
- Q2: cells with MMP loss [14]: 70.5%
- cells with disrupted MMP (Q3 and Q4) [14]: 19.1%
- cells in sub-G0/G1 phase ([15]; 1/4 × IC50, 24 h): 3.41 ± 0.2%
- cells in sub-G0/G1 phase ([15]; 2 × IC50, 24 h): 38.40 ± 2.6%
- IC50 [16]: 2.00 µg/mL (≈ 4.31 µM)
- IC50 [4]: 51.2 ± 3.2 µM
- ROS levels in treated cells ([17]; 1/4 × IC50, 24 h): 6.00%
- ROS levels in treated cells ([17]; 2 × IC50, 24 h): 49.00%
- IC50 [18]: 8.7 µM
- IC50 [5]: 6.65 ± 0.24 µM
- Degree of resistance (D.R.) [5]: 1.63
- IC50 [19]: 3.65 µg/mL (≈ 7.86 µM)
- IC50 [6]: 2.73 ± 0.19 µM
- IC50 [7]: 5.42 ± 0.44 µM
- Degree of resistance (D.R.) [7]: 0.58
- IC50 [20]: 32.94 µg/mL (≈ 70.9 µM)
- IC50 [8]: 4.07 ± 0.37 µM
- increase of activity of caspase 8 [21]: 2.12 fold
- increase of activity of caspase 9 [22]: 2.67 fold
- IC50 [9]: 4.28 ± 0.31 µM
- IC50 [10]: 9.29 ± 0.73 µM
- IC50 [23]: 1.15 µg/mL (≈ 2.48 µM)
- Q2-LR: early apoptotic cells annexin (+)/PI (-) [24]: 9.4 ± 0.8%
- Q2-UR: annexin V (+)/PI (+) late apoptotic or necrotic cells [24]: 18.5 ± 1.3%
- melting point: 261 to 263 °C
- cancer cell lines with IC50 ≤ 10 μM [25]: 8/9
- IC50 [26]: 8.18 µg/mL (≈ 17.6 µM)

Reference: article PMC9930359, “Cytotoxicity of the methanol extracts and compounds of Brucea antidysenterica (Simaroubaceae) towards multifactorial drug-resistant human cancer cell lines” (BMC Complementary Medicine and Therapies, 2023)
